According to ChEMBL document CHEMBL1135273, “5-Phosphonomethylquinoxalinediones as competitive NMDA receptor antagonists with a preference for the human 1A/2A, rather than 1A/2B receptor composition” (Bioorg Med Chem Lett, 2002):
Activity calls are given as the source filed them. No cut-off for these calls is given here.

How the values were obtained:
[1] = molecular target: Glutamate [NMDA] receptor; test: In vitro inhibitory activity at 1 uM concentration against N-methyl-D-aspartate glutamate receptor, using [3H]CGP-39653 binding assay; format: protein-complex assay
[2] = tested on: GRIN1/GRIN2A vs GRIN1/GRIN2B (Homo sapiens); test: Ratio of human NMDA 1A/2A receptor to human NMDA 1A/2B receptor was determined in xenopus oocytes; >1/17; details: Oocyte
Mus musculus [3] = species: Mus musculus; test: Anticonvulsant effect in mouse electroshock-induced seizure test (MES).; format: functional
[4] = molecular target: Glutamate NMDA receptor; GRIN1/GRIN2A (Homo sapiens, UniProt Q05586+Q12879); test: Inhibitory activity against Xenopus laevis oocyte expressing 1A/2A heteromeric human NMDA (hNMDA) receptor; format: protein-complex assay
Glutamate NMDA receptor; GRIN1/GRIN2A, sequence (Q12879 whole entry, other chains not shown): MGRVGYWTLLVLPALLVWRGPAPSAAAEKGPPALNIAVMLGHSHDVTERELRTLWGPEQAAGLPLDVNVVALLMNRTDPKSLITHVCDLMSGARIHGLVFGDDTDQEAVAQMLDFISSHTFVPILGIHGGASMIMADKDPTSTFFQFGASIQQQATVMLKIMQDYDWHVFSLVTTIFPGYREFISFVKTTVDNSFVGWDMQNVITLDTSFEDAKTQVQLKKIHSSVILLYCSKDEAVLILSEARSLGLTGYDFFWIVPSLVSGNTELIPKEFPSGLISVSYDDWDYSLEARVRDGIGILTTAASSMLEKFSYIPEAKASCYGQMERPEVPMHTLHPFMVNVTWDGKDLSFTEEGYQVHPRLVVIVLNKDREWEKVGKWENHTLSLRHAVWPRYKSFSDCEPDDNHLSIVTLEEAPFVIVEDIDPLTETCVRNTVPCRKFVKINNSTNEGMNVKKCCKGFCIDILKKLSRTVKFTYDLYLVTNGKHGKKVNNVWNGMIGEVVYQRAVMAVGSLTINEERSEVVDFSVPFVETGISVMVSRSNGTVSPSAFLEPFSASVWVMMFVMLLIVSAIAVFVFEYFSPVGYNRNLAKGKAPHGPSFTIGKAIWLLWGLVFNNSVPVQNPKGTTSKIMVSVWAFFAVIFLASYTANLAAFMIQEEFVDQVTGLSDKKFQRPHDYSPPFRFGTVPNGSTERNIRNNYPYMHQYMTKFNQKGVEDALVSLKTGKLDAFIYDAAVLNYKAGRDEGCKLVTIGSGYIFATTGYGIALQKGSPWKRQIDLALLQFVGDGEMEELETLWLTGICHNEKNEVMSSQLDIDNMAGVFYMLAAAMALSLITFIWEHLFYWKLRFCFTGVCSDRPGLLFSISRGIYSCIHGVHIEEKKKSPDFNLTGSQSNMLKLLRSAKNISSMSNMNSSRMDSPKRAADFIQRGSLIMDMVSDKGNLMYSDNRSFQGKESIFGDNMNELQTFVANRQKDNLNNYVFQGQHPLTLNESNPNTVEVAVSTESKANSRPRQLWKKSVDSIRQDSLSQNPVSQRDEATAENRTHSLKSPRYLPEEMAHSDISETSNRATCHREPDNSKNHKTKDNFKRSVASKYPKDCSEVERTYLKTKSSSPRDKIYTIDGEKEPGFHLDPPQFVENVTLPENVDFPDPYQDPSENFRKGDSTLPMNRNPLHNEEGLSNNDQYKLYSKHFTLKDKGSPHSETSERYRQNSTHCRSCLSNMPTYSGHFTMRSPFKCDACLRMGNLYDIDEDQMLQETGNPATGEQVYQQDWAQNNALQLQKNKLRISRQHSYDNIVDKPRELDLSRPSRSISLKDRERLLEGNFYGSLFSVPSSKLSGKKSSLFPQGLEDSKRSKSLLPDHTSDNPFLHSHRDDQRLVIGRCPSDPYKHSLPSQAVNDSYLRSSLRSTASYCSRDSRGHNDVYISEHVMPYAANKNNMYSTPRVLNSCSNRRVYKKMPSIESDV

[5] = molecular target: Glutamate NMDA receptor; GRIN1/GRIN2B (Homo sapiens, UniProt Q05586+Q13224); test: Inhibitory activity against Xenopus laevis oocyte expressing 1A/2B heteromeric human NMDA (hNMDA) receptor; format: protein-complex assay
Glutamate NMDA receptor; GRIN1/GRIN2B, sequence (Q13224 whole entry, other chains not shown): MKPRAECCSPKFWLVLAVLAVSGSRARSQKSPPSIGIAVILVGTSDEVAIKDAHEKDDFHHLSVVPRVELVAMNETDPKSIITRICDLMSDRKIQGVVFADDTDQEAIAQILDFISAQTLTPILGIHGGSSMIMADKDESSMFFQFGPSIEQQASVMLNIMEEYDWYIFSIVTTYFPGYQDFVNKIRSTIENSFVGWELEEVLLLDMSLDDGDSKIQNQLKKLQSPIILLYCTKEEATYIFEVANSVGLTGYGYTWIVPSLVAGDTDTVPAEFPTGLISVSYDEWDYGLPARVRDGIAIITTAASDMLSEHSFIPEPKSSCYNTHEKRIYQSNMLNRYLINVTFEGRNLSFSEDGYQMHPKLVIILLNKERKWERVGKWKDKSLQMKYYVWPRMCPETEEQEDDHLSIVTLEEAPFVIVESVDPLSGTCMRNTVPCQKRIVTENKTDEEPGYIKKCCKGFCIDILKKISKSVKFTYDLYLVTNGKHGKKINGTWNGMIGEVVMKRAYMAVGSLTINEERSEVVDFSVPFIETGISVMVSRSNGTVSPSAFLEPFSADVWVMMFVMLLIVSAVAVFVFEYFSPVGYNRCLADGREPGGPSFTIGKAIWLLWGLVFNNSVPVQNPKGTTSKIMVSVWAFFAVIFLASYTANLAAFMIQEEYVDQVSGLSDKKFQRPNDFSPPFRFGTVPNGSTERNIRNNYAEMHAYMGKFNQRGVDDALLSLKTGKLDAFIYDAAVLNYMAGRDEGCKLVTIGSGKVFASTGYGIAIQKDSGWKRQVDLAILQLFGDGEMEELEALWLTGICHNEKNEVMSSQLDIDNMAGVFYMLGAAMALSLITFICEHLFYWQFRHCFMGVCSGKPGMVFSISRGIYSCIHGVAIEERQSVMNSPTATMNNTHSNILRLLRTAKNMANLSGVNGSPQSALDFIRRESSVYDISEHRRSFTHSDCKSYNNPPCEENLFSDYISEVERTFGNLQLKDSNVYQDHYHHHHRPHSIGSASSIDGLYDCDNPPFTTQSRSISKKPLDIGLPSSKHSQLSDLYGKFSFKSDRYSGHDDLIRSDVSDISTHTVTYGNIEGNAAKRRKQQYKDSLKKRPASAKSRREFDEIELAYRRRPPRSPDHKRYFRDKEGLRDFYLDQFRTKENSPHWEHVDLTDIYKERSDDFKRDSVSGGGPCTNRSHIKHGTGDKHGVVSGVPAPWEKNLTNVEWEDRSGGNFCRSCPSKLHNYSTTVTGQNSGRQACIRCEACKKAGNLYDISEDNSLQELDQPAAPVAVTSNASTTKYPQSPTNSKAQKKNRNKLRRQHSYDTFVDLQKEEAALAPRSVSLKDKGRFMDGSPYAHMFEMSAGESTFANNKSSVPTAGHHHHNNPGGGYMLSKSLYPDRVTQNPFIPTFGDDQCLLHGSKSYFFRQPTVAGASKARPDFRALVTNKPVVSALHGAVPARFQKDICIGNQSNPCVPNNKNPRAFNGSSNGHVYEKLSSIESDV

[6] = tested on: GRIN1/GRIN2A vs GRIN1/GRIN2B (Homo sapiens); test: Ratio of human NMDA 1A/2A receptor to human NMDA 1A/2B receptor was determined in xenopus oocytes; 1/7; details: Oocyte
Mus musculus [7] = test: Compound at a dose 50 mg/kg was administered intraperitoneally into mouse and percent protection was determined after 1 hour; format: functional; details: route intraperitoneal
[8] = molecular target: Glutamate [NMDA] receptor (Homo sapiens) (UniProt Q05586+Q12879+Q13224+O15399+O60391+Q14957+Q8TCU5); test: The compound was tested in vitro for percent inhibition at 1 uM concentration against N-methyl-D-aspartate glutamate receptor by using [3H]CGP-39653 binding assay; format: protein-complex assay
[9] = tested on: GRIN1/GRIN2A vs GRIN1/GRIN2B (Homo sapiens); test: Ratio of human NMDA 1A/2A receptor to human NMDA 1A/2B receptor was determined in xenopus oocytes; 1/9; details: Oocyte
[10] = tested on: GRIN1/GRIN2A vs GRIN1/GRIN2B (Homo sapiens); test: Ratio of human NMDA 1A/2A receptor to human NMDA 1A/2B receptor was determined in xenopus oocytes; 1/14; details: Oocyte
[11] = tested on: GRIN1/GRIN2A vs GRIN1/GRIN2B (Homo sapiens); test: Ratio of human NMDA 1A/2A receptor to human NMDA 1A/2B receptor was determined in xenopus oocytes; 1/11; details: Oocyte
[12] = tested on: GRIN1/GRIN2A vs GRIN1/GRIN2B (Homo sapiens); test: Ratio of human NMDA 1A/2A receptor to human NMDA 1A/2B receptor was determined in xenopus oocytes; 1/1; details: Oocyte
[13] = tested on: GRIN1/GRIN2A vs GRIN1/GRIN2B (Homo sapiens); test: Ratio of human NMDA 1A/2A receptor to human NMDA 1A/2B receptor was determined in xenopus oocytes; 1/8; details: Oocyte
[14] = tested on: GRIN1/GRIN2A vs GRIN1/GRIN2B (Homo sapiens); test: Ratio of human NMDA 1A/2A receptor to human NMDA 1A/2B receptor was determined in xenopus oocytes; 1/13; details: Oocyte
[15] = tested on: GRIN1/GRIN2A vs GRIN1/GRIN2B (Homo sapiens); test: Ratio of human NMDA 1A/2A receptor to human NMDA 1A/2B receptor was determined in xenopus oocytes; 1/40; details: Oocyte
[16] = tested on: Glutamate [NMDA] receptor; test: The compound was tested in vitro for its inhibitory activity at 1 uM concentration against N-methyl-D-aspartate glutamate receptor by using [3H]CGP-39653 binding assay; Inactive; format: protein-complex assay
Mus musculus [17] = test: Compound was evaluated for its anticonvulsant effect in mouse electroshock-induced seizure test (MES), 8 hr after oral administration; format: functional
[18] = Compound was tested in vitro for its inhibitory activity against Xenopus laevis oocyte expressing 1A/2A heteromeric human NMDA (hNMDA) receptor
[19] = molecular target: Glutamate [NMDA] receptor; test: Compound was tested in vitro for its inhibitory activity at 1 uM concentration against N-methyl-D-aspartate glutamate receptor by using [3H]CGP-39653 binding assay; format: protein-complex assay
[20] = Compound was tested in vitro for its inhibitory activity against Xenopus laevis oocyte expressing 1A/2B heteromeric human NMDA (hNMDA) receptor
[21] = tested on: GRIN1/GRIN2A vs GRIN1/GRIN2B (Homo sapiens); test: Ratio of human NMDA 1A/2A receptor to human NMDA 1A/2B receptor was determined in xenopus oocytes; 1/15; details: Oocyte
Mus musculus [22] = test: Compound was evaluated for its anticonvulsant effect in mouse electroshock-induced seizure test (MES), 8 hr after intraperitoneal administration; format: functional; details: ip
[23] = tested on: GRIN1/GRIN2A vs GRIN1/GRIN2B (Homo sapiens); test: Ratio of human NMDA 1A/2A receptor to human NMDA 1A/2B receptor was determined in xenopus oocytes; 1/111; details: Oocyte
[24] = tested on: GRIN1/GRIN2A vs GRIN1/GRIN2B (Homo sapiens); test: Ratio of human NMDA 1A/2A receptor to human NMDA 1A/2B receptor was determined in xenopus oocytes; 1/50; details: Oocyte
[25] = tested on: GRIN1/GRIN2A vs GRIN1/GRIN2B (Homo sapiens); test: Ratio of human NMDA 1A/2A receptor to human NMDA 1A/2B receptor was determined in xenopus oocytes; 1/26; details: Oocyte
[26] = tested on: GRIN1/GRIN2A vs GRIN1/GRIN2B (Homo sapiens); test: Ratio of human NMDA 1A/2A receptor to human NMDA 1A/2B receptor was determined in xenopus oocytes; 1/10; details: Oocyte

Compound	IC50 [1]	ED50 (Mus musculus [3])	IC50 [4]	IC50 [5]	other results
C[C@H](NC(c1cccc2nc(O)c(O)nc12)P(=O)(O)O)c1cccc2ccccc12 (some centres not stated)	27 nM	15 mg/kg	1700 nM	> 30000 nM	Ratio [2]: Active
O=[N+]([O-])c1cc(C(O)P(=O)(O)O)c2nc(O)c(O)nc2c1 (configuration not stated)	1.2 nM	1.2 mg/kg			
CC(=O)OC(c1cc([N+](=O)[O-])cc2nc(O)c(O)nc12)P(=O)(O)O (configuration not stated)	8.1 nM	5 mg/kg			
Br.CP(=O)(O)C(NCc1ccccc1)c1cc([N+](=O)[O-])cc2nc(O)c(O)nc12 (configuration not stated)	80 nM		200 nM	1300 nM	Ratio [6]: Active; Protection (Mus musculus [7]): 0%
CP(=O)(O)C(O)c1cc([N+](=O)[O-])cc2nc(O)c(O)nc12 (configuration not stated)					Protection (Mus musculus [7]): 0%; inhibition [8]: 42%
Cl.NC(c1cc([N+](=O)[O-])cc2nc(O)c(O)nc12)P(=O)(O)O (configuration not stated)	40 nM	11.6 mg/kg			
Br.O=[N+]([O-])c1cc(C(NCc2ccco2)P(=O)(O)O)c2nc(O)c(O)nc2c1 (configuration not stated)	4.1 nM	3.7 mg/kg			
O=P(O)(O)Cc1cc(Cl)cc2nc(O)c(O)nc12	1.7 nM	2.4 mg/kg			
O=P(O)(O)Cc1cc(-c2ccc(Cl)cc2)cc2nc(O)c(O)nc12	0.8 nM	0.7 mg/kg	0.2 nM	1.8 nM	Ratio [9]: Active
O=P(O)(O)C(N[C@H]1CCc2ccccc21)c1cccc2nc(O)c(O)nc12 (some centres not stated)	120 nM	2 mg/kg	60 nM	820 nM	Ratio [10]: Active
O=P(O)(O)Cc1cc(Br)cc2nc(O)c(O)nc12	1.5 nM	2.5 mg/kg			
C[C@@H](NC(c1cccc2nc(O)c(O)nc12)P(=O)(O)O)c1ccccc1 (some centres not stated)	31 nM		50 nM	570 nM	Ratio [11]: Active; Protection (Mus musculus [7]): 60%
O=P(O)(O)C(O)c1cccc2nc(O)c(O)nc12 (configuration not stated)	1.5 nM	0.5 mg/kg	1.1 nM	0.7 nM	Ratio [12]: Active
CNC(c1cccc2nc(O)c(O)nc12)P(=O)(O)O (configuration not stated)	1100 nM		790 nM	6200 nM	Ratio [13]: Active
O=P(O)(O)C(Nc1ccccc1)c1cccc2nc(O)c(O)nc12 (configuration not stated)	130 nM		490 nM	6200 nM	Ratio [13]: Active; Protection (Mus musculus [7]): 0%
C[C@H](NC(c1cccc2[nH]c(=O)c(=O)[nH]c12)P(=O)(O)O)c1ccc(Br)cc1 (some centres not stated)	8 nM		270 nM	29600 nM	
COC(=O)NC(c1cc([N+](=O)[O-])cc2nc(O)c(O)nc12)P(=O)(O)O (configuration not stated)	370 nM	8.8 mg/kg	110 nM	1400 nM	Ratio [14]: Active

Compound	IC50 [1]	ED50 (Mus musculus [3])	IC50 [4]	IC50 [5]	other results
O=P(O)(O)C(NCCc1ccccc1)c1cccc2nc(O)c(O)nc12 (configuration not stated)	7.4 nM	10 mg/kg	40 nM	1600 nM	Ratio [15]: Active
O=P(O)(O)Cc1ccc2nc(O)c(O)nc2c1					IC50 [16]: Not Active
COC(c1cc([N+](=O)[O-])cc2nc(O)c(O)nc12)P(=O)(O)O (configuration not stated)	17 nM				
CC(=O)N(C)C(c1cccc2nc(O)c(O)nc12)P(=O)(O)O (configuration not stated)	860 nM		2800 nM	24000 nM	Ratio [9]: Active
O=P(O)(O)Cc1cccc2nc(O)c(O)nc12		0.7 mg/kg			ED50 (Mus musculus [17]): 6.7 mg/kg; IC50 [18]: 2 nM; IC50 [19]: 0.5 nM; IC50 [20]: 30 nM; Ratio [21]: Active; ED50 (Mus musculus [22]): 1.1 mg/kg
C[C@H](NC(c1cccc2nc(O)c(O)nc12)P(=O)(O)O)c1ccc(Br)cc1 (some centres not stated)		23 mg/kg			Ratio [23]: Active
O=P(O)(O)C(NC(c1ccccc1)c1ccccc1)c1cccc2nc(O)c(O)nc12 (configuration not stated)	38 nM	2.3 mg/kg	170 nM	1500 nM	Ratio [9]: Active
Br.O=[N+]([O-])c1cc(C(NCc2ccccc2)P(=O)(O)O)c2nc(O)c(O)nc2c1 (configuration not stated)	1.5 nM	1.5 mg/kg			
Br.O=P(O)(O)C(NCc1ccccc1)c1cccc2nc(O)c(O)nc12 (configuration not stated)	2 nM	2 mg/kg	4.2 nM	34 nM	Ratio [13]: Active
O=C(O)Cc1cccc2nc(O)c(O)nc12	250 nM				
C[C@H](NC(c1cccc2nc(O)c(O)nc12)P(=O)(O)O)c1ccccc1 (some centres not stated)	9.7 nM	6.7 mg/kg	18 nM	900 nM	Ratio [24]: Active
CN(Cc1ccccc1)C(c1cccc2nc(O)c(O)nc12)P(=O)(O)O (configuration not stated)	160 nM		600 nM	30000 nM	Ratio [24]: Active; Protection (Mus musculus [7]): 40%
O=P(O)(O)Cc1cc(F)cc2nc(O)c(O)nc12	1 nM				
Cl.O=[N+]([O-])c1cc(C(NCC2CCCCC2)P(=O)(O)O)c2nc(O)c(O)nc2c1 (configuration not stated)	3 nM	4 mg/kg			
Br.O=[N+]([O-])c1cc(C(NCc2ccccc2)P(=O)(O)Cc2ccccc2)c2nc(O)c(O)nc2c1 (configuration not stated)	60 nM		50 nM	1300 nM	Ratio [25]: Active; Protection (Mus musculus [7]): 20%
CCCNC(c1cc([N+](=O)[O-])cc2nc(O)c(O)nc12)P(=O)(O)O.Cl (configuration not stated)	65 nM	2.8 mg/kg	90 nM	930 nM	Ratio [26]: Active
